Data published in PMC5911580, “YL143, a novel mutant selective irreversible EGFR inhibitor, overcomes EGFR^L858R, T790M‐mutant resistance in vitro and in vivo” (Cancer Medicine, 2018).

What was measured:
EGFR^L858R/T790M = EGFR^L858R/T790M (Homo sapiens, UniProt P00533, L858R/T790M); test: Compound washout assay on H1975 cells (Western blot); format: cell-based; conditions: 100 nmol/L for 4 h, then washout, 24 h
Procedure: Cells were treated with various concentrations of compound for designed time. Then, cells were lysed using 1 × SDS sample lysis buffer (CST recommended) with protease and phosphatase inhibitors. Cell lysates were loaded and electrophoresed onto 8–12% SDS‐PAGE gel, and then, separated proteins were transferred to a PVDF film. The film was blocked with 5% fat‐free milk in TBS solution containing 0.5% Tween‐20 for 4 h at room temperature and then incubated with corresponding primary antibody (1:1000–1:200) overnight at 4°C. After washing with TBST, HRP‐conjugated secondary antibody was incubated for 2 h. And the protein signals were visualized by ECL Western Blotting Detection Kit (Thermo Scientific, Waltham, MA) and detected with Amersham Imager 600 system (GE, America).
Cells were treated with or without compound YL143 for 4 h at indicated concentration, respectively. Cells were harvested for Western blot analysis. […] NCI‐H1975 cells were treated with or without compound YL143(100 nmol/L) for 4 h, and then the medium with compound was removed and fresh medium was added. At the indicated time points, cells were harvest and proteins were extracted and subjected to Western blot analysis.

PDGFRA = PDGFRA (Homo sapiens, UniProt P16234); test: Z'-Lyte kinase panel, PDGFRA; format: biochemical; conditions: 1.5 hrs incubation
Sequence of PDGFRA (P16234 24-1089, species assumed): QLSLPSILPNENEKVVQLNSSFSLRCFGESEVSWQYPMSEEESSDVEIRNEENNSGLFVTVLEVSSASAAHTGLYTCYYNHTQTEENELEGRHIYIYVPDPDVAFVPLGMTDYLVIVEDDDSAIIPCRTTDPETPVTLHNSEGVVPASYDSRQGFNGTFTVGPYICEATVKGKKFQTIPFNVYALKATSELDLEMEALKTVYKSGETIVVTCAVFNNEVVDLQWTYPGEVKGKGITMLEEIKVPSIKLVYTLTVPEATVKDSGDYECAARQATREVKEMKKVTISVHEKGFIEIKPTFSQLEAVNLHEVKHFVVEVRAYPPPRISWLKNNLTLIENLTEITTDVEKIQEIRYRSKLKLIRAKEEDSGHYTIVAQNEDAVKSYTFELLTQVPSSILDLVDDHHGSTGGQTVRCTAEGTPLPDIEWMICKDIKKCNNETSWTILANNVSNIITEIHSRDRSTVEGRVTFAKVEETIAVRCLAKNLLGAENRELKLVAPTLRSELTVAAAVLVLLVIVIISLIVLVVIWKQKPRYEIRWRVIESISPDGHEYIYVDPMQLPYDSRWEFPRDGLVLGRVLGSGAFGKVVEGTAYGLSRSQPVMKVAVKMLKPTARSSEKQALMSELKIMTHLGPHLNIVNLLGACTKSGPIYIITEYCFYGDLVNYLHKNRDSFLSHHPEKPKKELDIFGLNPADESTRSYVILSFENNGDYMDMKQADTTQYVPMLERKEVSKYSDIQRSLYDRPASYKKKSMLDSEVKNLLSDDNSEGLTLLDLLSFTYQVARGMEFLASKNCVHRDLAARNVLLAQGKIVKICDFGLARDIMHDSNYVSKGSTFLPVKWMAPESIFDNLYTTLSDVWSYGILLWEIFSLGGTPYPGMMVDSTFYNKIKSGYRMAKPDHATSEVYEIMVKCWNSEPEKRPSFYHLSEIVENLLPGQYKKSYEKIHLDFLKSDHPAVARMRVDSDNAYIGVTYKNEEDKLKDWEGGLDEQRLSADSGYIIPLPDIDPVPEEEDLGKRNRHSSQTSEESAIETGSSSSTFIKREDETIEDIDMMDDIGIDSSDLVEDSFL
Procedure: (§1) Kinase activity assays were performed using the FRET-based Z′-Lyte assay according to the manufacturer’s instructions. The compounds were incubated with the kinase reaction mixture for 1.5 hrs before measurement. The data are means from two independent experiments and the variations are below 20%.

IR = IR (Homo sapiens, UniProt P06213); test: FRET-based Z'-Lyte kinase assay, IR; format: biochemical; conditions: AV ± SD; 1.5 h incubation
Sequence of IR (P06213 28-1382): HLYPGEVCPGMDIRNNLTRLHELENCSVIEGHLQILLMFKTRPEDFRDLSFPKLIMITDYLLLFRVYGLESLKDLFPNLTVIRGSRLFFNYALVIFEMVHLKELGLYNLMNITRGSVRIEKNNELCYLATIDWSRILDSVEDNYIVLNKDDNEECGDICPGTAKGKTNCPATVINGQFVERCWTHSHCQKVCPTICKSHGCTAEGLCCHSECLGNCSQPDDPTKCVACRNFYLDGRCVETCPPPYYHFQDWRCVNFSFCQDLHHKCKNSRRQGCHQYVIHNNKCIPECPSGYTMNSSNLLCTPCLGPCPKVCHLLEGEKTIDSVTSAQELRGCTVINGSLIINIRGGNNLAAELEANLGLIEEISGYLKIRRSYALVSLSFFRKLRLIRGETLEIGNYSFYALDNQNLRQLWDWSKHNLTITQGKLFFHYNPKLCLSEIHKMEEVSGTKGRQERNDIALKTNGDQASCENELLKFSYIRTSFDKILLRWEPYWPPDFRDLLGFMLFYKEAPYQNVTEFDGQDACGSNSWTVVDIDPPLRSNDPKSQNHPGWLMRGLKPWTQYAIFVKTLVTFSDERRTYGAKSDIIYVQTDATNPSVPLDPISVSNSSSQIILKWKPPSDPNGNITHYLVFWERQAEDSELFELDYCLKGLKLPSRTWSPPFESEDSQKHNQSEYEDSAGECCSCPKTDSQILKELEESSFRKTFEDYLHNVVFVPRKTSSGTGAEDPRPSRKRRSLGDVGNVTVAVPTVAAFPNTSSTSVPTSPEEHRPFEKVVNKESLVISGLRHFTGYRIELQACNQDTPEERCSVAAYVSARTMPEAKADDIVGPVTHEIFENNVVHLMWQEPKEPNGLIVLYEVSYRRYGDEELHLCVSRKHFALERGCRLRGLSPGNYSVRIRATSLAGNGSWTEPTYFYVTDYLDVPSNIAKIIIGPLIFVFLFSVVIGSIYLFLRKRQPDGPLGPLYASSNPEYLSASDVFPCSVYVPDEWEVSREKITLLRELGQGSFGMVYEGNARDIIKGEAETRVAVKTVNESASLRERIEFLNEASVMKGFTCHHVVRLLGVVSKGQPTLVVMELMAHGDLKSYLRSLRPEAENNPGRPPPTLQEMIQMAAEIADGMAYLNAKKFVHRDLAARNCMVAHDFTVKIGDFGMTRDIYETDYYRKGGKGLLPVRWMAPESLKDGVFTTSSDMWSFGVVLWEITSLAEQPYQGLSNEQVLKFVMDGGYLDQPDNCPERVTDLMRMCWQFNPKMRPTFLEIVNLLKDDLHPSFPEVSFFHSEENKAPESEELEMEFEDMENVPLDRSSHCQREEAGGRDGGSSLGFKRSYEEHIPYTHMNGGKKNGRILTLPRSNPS
Procedure: The kinase activity assay was performed and optimized according to the instructions of Z’‐LYTE™ kinase assay kits from the manufacturer (PV4879, Life, America). In our experiments, 10 concentration gradients from 0.01 nmol/L to 1.0 μmol/L were used for all the compounds.

Kit = Kit (Homo sapiens, UniProt P10721); test: Z'-Lyte kinase panel, Kit; format: biochemical; conditions: 1.5 hrs incubation
Sequence of Kit (P10721 26-976, species assumed): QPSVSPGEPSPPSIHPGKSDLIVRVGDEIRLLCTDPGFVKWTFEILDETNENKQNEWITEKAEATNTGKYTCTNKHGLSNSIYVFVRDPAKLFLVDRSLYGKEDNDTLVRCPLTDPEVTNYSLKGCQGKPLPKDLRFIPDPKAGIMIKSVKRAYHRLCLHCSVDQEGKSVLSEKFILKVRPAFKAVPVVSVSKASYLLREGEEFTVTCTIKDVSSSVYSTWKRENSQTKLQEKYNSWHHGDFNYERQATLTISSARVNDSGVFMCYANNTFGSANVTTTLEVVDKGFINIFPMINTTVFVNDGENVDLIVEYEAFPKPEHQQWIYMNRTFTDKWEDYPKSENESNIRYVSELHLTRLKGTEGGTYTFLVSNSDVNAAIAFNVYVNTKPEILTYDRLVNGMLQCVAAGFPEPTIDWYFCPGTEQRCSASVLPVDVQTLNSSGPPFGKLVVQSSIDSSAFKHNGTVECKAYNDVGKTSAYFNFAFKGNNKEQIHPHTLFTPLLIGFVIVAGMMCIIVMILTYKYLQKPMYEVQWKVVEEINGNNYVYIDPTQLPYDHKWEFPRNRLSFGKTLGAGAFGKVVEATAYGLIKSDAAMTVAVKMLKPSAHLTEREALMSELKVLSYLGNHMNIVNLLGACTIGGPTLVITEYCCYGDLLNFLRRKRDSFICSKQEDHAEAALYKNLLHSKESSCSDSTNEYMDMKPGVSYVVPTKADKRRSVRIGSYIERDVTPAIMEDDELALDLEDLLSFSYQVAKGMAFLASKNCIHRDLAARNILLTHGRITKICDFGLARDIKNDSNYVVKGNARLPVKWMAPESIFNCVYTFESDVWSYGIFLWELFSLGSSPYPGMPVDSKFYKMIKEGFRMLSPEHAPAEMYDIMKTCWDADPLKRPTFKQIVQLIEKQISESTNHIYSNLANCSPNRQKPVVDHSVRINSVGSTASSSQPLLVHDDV
Procedure: as §1

In the case of `C=CC(=O)Nc1cc(C)cc(-n2c(=O)cc(C)c3cnc(Nc4ccc(N5CCN(C)CC5)cc4OC)nc32)c1` [YL143, N‐(3‐(2‐((2‐Methoxy‐4‐(4‐methylpiperazin‐1‐yl)phenyl)amino)‐5‐methyl‐7‐oxopyrido [2,3‐d]pyrimidin‐8(7H)‐yl)‐5‐methylphenyl)acrylamide], the “EGFR^L858R/T790M phosphorylation recovery after withdrawal” value (EGFR^L858R/T790M) is reported as “no EGFR^L858R/T790M phosphorylation recovery was observed”, the IC50 (PDGFRA) is reported as over 10 µM and the IC50 (IR) is reported as 0.0075 ± 0.0001 µM. The IC50 (Kit) was over 10 µM.
